For the test, the target named is EGFR (Homo sapiens (Human), UniProt P00533). The test can be described thus: EGFR kinase inhibition, luciferase-coupled chemiluminescent assay (LCCA). Particulars: read-out: EGFR IC50.
EGFR, sequence (P00533 672-1210): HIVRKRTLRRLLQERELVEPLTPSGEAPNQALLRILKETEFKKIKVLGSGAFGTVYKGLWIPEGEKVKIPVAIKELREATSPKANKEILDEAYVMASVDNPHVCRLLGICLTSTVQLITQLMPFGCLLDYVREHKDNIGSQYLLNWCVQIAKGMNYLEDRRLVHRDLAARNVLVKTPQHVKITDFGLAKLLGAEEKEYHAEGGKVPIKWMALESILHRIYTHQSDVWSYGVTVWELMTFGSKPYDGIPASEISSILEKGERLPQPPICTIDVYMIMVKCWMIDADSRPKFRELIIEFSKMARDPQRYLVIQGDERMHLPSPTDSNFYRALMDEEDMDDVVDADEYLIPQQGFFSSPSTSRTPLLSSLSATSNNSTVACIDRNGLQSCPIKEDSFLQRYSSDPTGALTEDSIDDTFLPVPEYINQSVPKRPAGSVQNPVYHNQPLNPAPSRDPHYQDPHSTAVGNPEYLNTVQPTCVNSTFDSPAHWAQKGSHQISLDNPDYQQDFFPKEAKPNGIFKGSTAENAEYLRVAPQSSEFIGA

`COc1cc2c(Nc3ccc(Cl)c(Cl)c3F)ncnc2cc1OC[C@@H]1CN2CCCC[C@@H]2C(=O)N1` [Example 50, (3S,9aR)-3-({[4-[(3,4-dichloro-2-fluorophenyl)amino]-6-(methyloxy)quinazolin-7-yl]oxy}methyl)hexahydro-2H-pyrido[1,2-a]pyrazin-1(6H)-one]: the IC50 was 50 to 1000 nM.
In the case of `C=C1CO[C@@H]2[C@@H](Oc3cc4ncnc(Nc5ccc(Br)c(Cl)c5)c4cc3OC)CO[C@H]12` [Example 81, 1,4:3,6-dianhydro-2-O-[4-[(4-bromo-3-chlorophenyl)amino]-6-(methyloxy)quinazolin-7-yl]-5-deoxy-5-methylidene-D-xylo-hexitol] it was less than 50 nM; in that of `COc1cc2c(Nc3ccc(Br)c(Cl)c3)ncnc2cc1O[C@H]1CO[C@@H]2[C@@H](OC)[C@@H](OC)O[C@@H]21` [Example 82, methyl 3,6-anhydro-5-O-[4-[(4-bromo-3-chlorophenyl)amino]-6-(methyloxy)quinazolin-7-yl]-2-O-methyl-beta-L-idofuranoside], less than 50 nM.
In the case of `COc1cc2c(Nc3ccc(Cl)c(Cl)c3F)ncnc2cc1OCC1CCC2CCCCN2C1` (stereo not drawn) [Example 83, N-(3,4-dichloro-2-fluorophenyl)-6-(methyloxy)-7-[(octahydro-2H-quinolizin-3-ylmethyl)oxy]quinazolin-4-amine] it was less than 50 nM.
With `COc1cc2c(Nc3ccc(F)cc3Cl)ncnc2cc1O[C@@H]1CO[C@@H]2[C@H]1OC[C@H]2F` [Example 85, 1,4:3,6-dianhydro-5-O-[4-[(2-chloro4-fluorophenyl)amino]-6-(methyloxy)quinazolin-7-yl]-2-deoxy-2-fluoro-D-iditol], the IC50 is less than 50 nM.
Under `COc1cc2c(Nc3ccc(F)cc3Br)ncnc2cc1O[C@@H]1CO[C@@H]2[C@H]1OC[C@H]2F` [Example 86, 1,4:3,6-dianhydro-5-O-[4-[(2-bromo-4-fluorophenyl)amino]-6-(methyloxy)quinazolin-7-yl]-2-deoxy-2-fluoro-D-iditol] stands less than 50 nM; under `COc1cc2c(Nc3cccc(Cl)c3F)ncnc2cc1O[C@@H]1CO[C@@H]2[C@H]1OC[C@H]2F` [Example 88, 1,4:3,6-dianhydro-5-O-[4-[(3-chloro-2-fluorophenyl)amino]-6-(methyloxy)quinazolin-7-yl]-2-deoxy-2-fluoro-D-iditol], less than 50 nM.
Take `COc1cc2c(Nc3cc(F)ccc3F)ncnc2cc1O[C@@H]1CO[C@@H]2[C@H]1OC[C@H]2F` [Example 91, 1,4:3,6-dianhydro-2-deoxy-5-O-[4-[(2,5-difluorophenyl)amino]-6-(methyloxy)quinazolin-7-yl]-2-fluoro-D-iditol]: the IC50 is less than 50 nM.
Under `COc1cc2c(Nc3cc(Cl)ccc3F)ncnc2cc1O[C@@H]1CO[C@@H]2[C@H]1OC[C@H]2F` [Example 93, 1,4:3,6-dianhydro-5-O-[4-[(5-chloro-2-fluorophenyl)amino]-6-(methyloxy)quinazolin-7-yl]-2-deoxy-2-fluoro-D-iditol] stands less than 50 nM; under `COc1cc2c(Nc3ccc(F)c(Cl)c3)ncnc2cc1O[C@@H]1CO[C@@H]2[C@H]1OC[C@H]2F` [Example 95, 1,4:3,6-dianhydro-5-O-[4-[(3-chloro-4-fluorophenyl)amino]-6-(methyloxy)quinazolin-7-yl]-2-deoxy-2-fluoro-D-iditol], less than 50 nM.
In the case of `COc1cc2c(Nc3c(F)cc(F)cc3F)ncnc2cc1O[C@@H]1CO[C@@H]2[C@H]1OC[C@H]2F` [Example 100, 1,4:3,6-dianhydro-2-deoxy-2-fluoro-5-O-{6-(methyloxy)-4-[(2,4,6-trifluorophenyl)amino]quinazolin-7-yl}-D-iditol] it was less than 50 nM; in that of `COc1cc2c(Nc3cc(F)c(Oc4ccc(Cl)cc4)c(F)c3)ncnc2cc1O[C@@H]1CO[C@@H]2[C@H]1OC[C@H]2F` [Example 101, 1,4:3,6-dianhydro-5-O-[4-({4-[(4-chlorophenyl)oxy]-3,5-difluorophenyl}amino)-6-(methyloxy)quinazolin-7-yl]-2-deoxy-2-fluoro-D-iditol], less than 50 nM; in that of `COc1cc2c(Nc3ccc(Br)c(Cl)c3F)ncnc2cc1O[C@@H]1CO[C@@H]2[C@H]1OC[C@H]2F` [Example 102, 1,4:3,6-dianhydro-5-O-[4-[(4-bromo-3-chloro-2-fluorophenyl)amino]-6-(methyloxy)quinazolin-7-yl]-2-deoxy-2-fluoro-D-iditol], less than 50 nM.
Take `COc1cc2c(Nc3cccc(Cl)c3C)ncnc2cc1O[C@@H]1CO[C@@H]2[C@H]1OC[C@H]2F` [Example 110, 1,4:3,6-dianhydro-5-O-[4-[(3-chloro-2-methylphenyl)amino]-6-(methyloxy)quinazolin-7-yl]-2-deoxy-2-fluoro-D-iditol]: the IC50 was less than 50 nM.
In the case of `COc1cc2c(Nc3ccc(F)c(F)c3)ncnc2cc1O[C@@H]1CO[C@@H]2[C@H]1OC[C@H]2F` [Example 111, 1,4:3,6-dianhydro-2-deoxy-5-O-[4-[(3,4-difluorophenyl)amino]-6-(methyloxy)quinazolin-7-yl]-2-fluoro-D-iditol] it was less than 50 nM.
As to `COc1cc2c(Nc3ccccc3Cl)ncnc2cc1O[C@@H]1CO[C@@H]2[C@H]1OC[C@H]2F` [Example 112, 1,4:3,6-dianhydro-5-O-[4-[(2-chlorophenyl)amino]-6-(methyloxy)quinazolin-7-yl]-2-deoxy-2-fluoro-D-iditol], the IC50 was less than 50 nM.
As for `COc1cc2c(Nc3ccccc3F)ncnc2cc1O[C@@H]1CO[C@@H]2[C@H]1OC[C@H]2F` [Example 113, 1,4:3,6-dianhydro-2-deoxy-2-fluoro-5-O-[4-[(2-fluorophenyl)amino]-6-(methyloxy)quinazolin-7-yl]-D-iditol], the IC50 was less than 50 nM.
For the compound `COc1cc2c(Nc3ccc(Cl)cc3)ncnc2cc1O[C@@H]1CO[C@@H]2[C@H]1OC[C@H]2F` [Example 116, 1,4:3,6-dianhydro-5-O-[4-[(4-chlorophenyl)amino]-6-(methyloxy)quinazolin-7-yl]-2-deoxy-2-fluoro-D-iditol], the IC50 was less than 50 nM.
In the case of `COc1cc2c(Nc3ccc(Cl)c(C(F)(F)F)c3)ncnc2cc1O[C@@H]1CO[C@@H]2[C@H]1OC[C@H]2F` [Example 121, 1,4:3,6-dianhydro-5-O-[4-{[4-chloro-3-(trifluoromethyl)phenyl]amino}-6-(methyloxy)quinazolin-7-yl]-2-deoxy-2-fluoro-D-iditol] it was less than 50 nM; in that of `COc1cc2c(Nc3cccc(C(F)(F)F)c3F)ncnc2cc1O[C@@H]1CO[C@@H]2[C@H]1OC[C@H]2F` [Example 123, 1,4:3,6-dianhydro-2-deoxy-2-fluoro-5-O-[4-{[2-fluoro-3-(trifluoromethyl)phenyl]amino}-6-(methyloxy)quinazolin-7-yl]-D-iditol], less than 50 nM.
Under `COc1cc2c(Nc3cc(C(F)(F)F)ccc3Br)ncnc2cc1O[C@@H]1CO[C@@H]2[C@H]1OC[C@H]2F` [Example 124, 1,4:3,6-dianhydro-5-O-[4-{[2-bromo-5-(trifluoromethyl)phenyl]amino}-6-(methyloxy)quinazolin-7-yl]-2-deoxy-2-fluoro-D-iditol] stands less than 50 nM; under `COc1cc2c(Nc3ccc(F)cc3C(F)(F)F)ncnc2cc1O[C@@H]1CO[C@@H]2[C@H]1OC[C@H]2F` [Example 126, 1,4:3,6-dianhydro-2-deoxy-2-fluoro-5-O-[4-{[4-fluoro-2-(trifluoromethyl)phenyl]amino}-6-(methyloxy)quinazolin-7-yl]-D-iditol], less than 50 nM.
Under `COc1cc2c(Nc3ccccc3Br)ncnc2cc1O[C@@H]1CO[C@@H]2[C@H]1OC[C@H]2F` [Example 128, 1,4:3,6-dianhydro-5-O-[4-[(2-bromophenyl)amino]-6-(methyloxy)quinazolin-7-yl]-2-deoxy-2-fluoro-D-iditol] stands less than 50 nM; under `COc1cc2c(Nc3ccc(Br)cc3)ncnc2cc1O[C@@H]1CO[C@@H]2[C@H]1OC[C@H]2F` [Example 130, 1,4:3,6-dianhydro-5-O-[4-[(4-bromophenyl)amino]-6-(methyloxy)quinazolin-7-yl]-2-deoxy-2-fluoro-D-iditol], less than 50 nM.
Take `COc1cc2c(Nc3ccc(C)c(Br)c3)ncnc2cc1O[C@@H]1CO[C@@H]2[C@H]1OC[C@H]2F` [Example 131, 1,4:3,6-dianhydro-5-O-[4-[(3-bromo-4-methylphenyl)amino]-6-(methyloxy)quinazolin-7-yl]-2-deoxy-2-fluoro-D-iditol]: the IC50 was less than 50 nM.
Under `COc1cc2c(Nc3cc(C)cc(C)c3)ncnc2cc1O[C@@H]1CO[C@@H]2[C@H]1OC[C@H]2F` [Example 133, 1,4:3,6-dianhydro-2-deoxy-5-O-[4-[(3,5-dimethylphenyl)amino]-6-(methyloxy)quinazolin-7-yl]-2-fluoro-D-iditol] stands less than 50 nM.
Turning to `COc1cc(Nc2ncnc3cc(O[C@@H]4CO[C@@H]5[C@H]4OC[C@H]5F)c(OC)cc23)c(OC)cc1Cl` [Example 136, 1,4:3,6-dianhydro-5-O-[4-{[4-chloro-2,5-bis(methyloxy)phenyl]amino}-6-(methyloxy)quinazolin-7-yl]-2-deoxy-2-fluoro-D-iditol], the IC50 was less than 50 nM.
As for `COc1cc2c(Nc3ccc(Cl)c(Cl)c3)ncnc2cc1OCC1CNCCO1` (stereo not drawn) [Example 144, N-(3,4-dichlorophenyl)-6-(methyloxy)-7-[(morpholin-2-ylmethyl)oxy]quinazolin-4-amine], the IC50 was less than 50 nM.
As to `COc1cc2c(Nc3ccc(Cl)c(Cl)c3)ncnc2cc1OCC1CNCCCO1` (stereo not drawn) [Example 152, N-(3,4-dichlorophenyl)-6-(methyloxy)-7-[(1,4-oxazepan-2-ylmethyl)oxy]quinazolin-4-amine], the IC50 is less than 50 nM.
In the case of `COc1cc2c(Nc3ccc(Cl)c(Cl)c3)ncnc2cc1OCc1cccc2nsnc12` [Example 159, 7-[(2,1,3-benzothiadiazol-4-ylmethyl)oxy]-N-(3,4-dichlorophenyl)-6-(methyloxy)quinazolin-4-amine] it was less than 50 nM.

These data come from patent publication US9796704B2, “Substituted quinazolines as receptor-type kinase inhibitors” (Symphony Evolution, Inc., priority 2002, dated 2017).
